The source made the active and inactive calls. No cut-off for these calls is given here.
What was measured:
[1] = test system: HeLa; assay: Phototoxicity against human HeLa cells assessed as surviving fraction at 1.2 uM irradiated with 9.15 mW/cm'2 light for 5 mins by MTT assay; assay type: functional
[2] = test system: HeLa; assay: Phototoxicity against human HeLa cells assessed as surviving fraction at 1.2 uM irradiated with 9.15 mW/cm'2 light for 10 mins by MTT assay; assay type: functional
[3] = test system: HaCaT; assay: Phototoxicity against human HaCaT cells assessed as surviving fraction at 0.22 uM under LED array light by MTT assay; assay type: functional
[4] = test system: HeLa; assay: Phototoxicity against human HeLa cells assessed as surviving fraction at 1.2 uM irradiated with 9.15 mW/cm'2 light for 20 mins by MTT assay; assay type: functional
[5] = test system: HeLa; assay: Phototoxicity against human HeLa cells assessed as surviving fraction at 2.4 uM under LED array light; assay type: functional
[6] = test system: HaCaT; assay: Phototoxicity against human HaCaT cells assessed as surviving fraction at 0.61 uM under LED array light by MTT assay; assay type: functional
[7] = test system: HaCaT; assay: Phototoxicity against human HaCaT cells assessed as surviving fraction at 2.4 uM under LED array light; assay type: functional
[8] = test system: HeLa; assay: Phototoxicity against human HeLa cells assessed as surviving fraction at 0.22 uM under LED array light; assay type: functional
[9] = test system: HaCaT; assay: Induction of apoptosis in human HaCaT cells assessed as intracellular localization at 1.2 uM with 9.15 mW/cm'2 light for; assay type: functional, cell-based; conditions: TDE = time-dependent effect
[10] = test system: HeLa; assay: Phototoxicity against human HeLa cells assessed as surviving fraction at 12 uM under LED array light by MTT assay; assay type: functional
[11] = test system: HaCaT; assay: Phototoxicity against human HaCaT cells assessed as surviving fraction at 1.2 uM irradiated with 9.15 mW/cm'2 light for 20 mins by MTT assay; assay type: functional
[12] = test system: HeLa; assay: Phototoxicity against human HeLa cells assessed as surviving fraction at 0.61 uM under LED array light; assay type: functional
[13] = test system: HaCaT; assay: Phototoxicity against human HaCaT cells assessed as surviving fraction at 1.2 uM under LED array light; assay type: functional
[14] = Induction of singlet oxygen production at 1 uM after irradiation at 10 mW/cm'2 in presence of 1,3-diphenylisobenzofuran; assay type: physicochemical
[15] = test system: HeLa; assay: Induction of apoptosis in human HeLa cells assessed as intracellular localization at 0.25 uM with 9.15 mW/cm'2 light for; assay type: functional, cell-based; conditions: TDE = time-dependent effect
[16] = test system: HaCaT; assay: Induction of apoptosis in human HaCaT cells assessed as change in cellular morphology after irradiation with 9.15 mW/cm'2 light; assay type: functional, cell-based
[17] = test system: HeLa; assay: Phototoxicity against human HeLa cells assessed as surviving fraction at 1.2 uM under LED array light; assay type: functional
[18] = test system: HaCaT; assay: Phototoxicity against human HaCaT cells assessed as surviving fraction at 1.2 uM irradiated with 9.15 mW/cm'2 light for 10 mins by MTT assay; assay type: functional
[19] = test system: HaCaT; assay: Phototoxicity against human HaCaT cells assessed as surviving fraction at 12 uM under LED array light; assay type: functional
[20] = test system: HeLa; assay: Phototoxicity against human HeLa cells assessed as survival at 1.2 uM irradiated with 9.15 mW/cm'2 light for 10 mins by MTT assay
[21] = test system: HaCaT; assay: Phototoxicity against human HaCaT cells assessed as surviving fraction at 0.3 uM irradiated with 9.15 mW/cm'2 light for 5 mins by MTT assay; assay type: functional
[22] = test system: HaCaT; assay: Phototoxicity against human HaCaT cells assessed as surviving fraction at 0.3 uM irradiated with 9.15 mW/cm'2 light for 15 mins by MTT assay; assay type: functional
[23] = test system: HeLa; assay: Phototoxicity against human HeLa cells assessed as survival at 0.3 uM irradiated with 9.15 mW/cm'2 light for 10 mins by MTT assay
[24] = test system: HaCaT; assay: Phototoxicity against human HaCaT cells assessed as surviving fraction at 0.3 uM irradiated with 9.15 mW/cm'2 light for 10 mins by MTT assay; assay type: functional
[25] = test system: HaCaT; assay: Induction of apoptosis in human HaCaT cells assessed as change in loss of basophilia after irradiation with 9.15 mW/cm'2 light for 10 mins; assay type: functional, cell-based
[26] = test system: HeLa; assay: Phototoxicity against human HeLa cells assessed as surviving fraction at 0.3 uM irradiated with 9.15 mW/cm'2 light for 15 mins by MTT assay; assay type: functional
[27] = test system: HeLa; assay: Phototoxicity against human HeLa cells assessed as surviving fraction at 0.3 uM irradiated with 9.15 mW/cm'2 light for 5 mins by MTT assay; assay type: functional
[28] = test system: HaCaT; assay: Induction of apoptosis in human HaCaT cells assessed as change in cytoplasmic vacuolization after irradiation with 9.15 mW/cm'2 light for 10 mins; assay type: functional, cell-based
[29] = test system: HaCaT; assay: Induction of apoptosis in human HaCaT cells assessed as intracellular localization at 0.3 uM with 9.15 mW/cm'2 light for; assay type: functional, cell-based; conditions: TDE = time-dependent effect
[30] = test system: HaCaT; assay: Induction of apoptosis in human HaCaT cells assessed as change in loss of adheshin after irradiation with 9.15 mW/cm'2 light for 10 mins; assay type: functional, cell-based
[31] = test system: HeLa; assay: Phototoxicity against human HeLa cells assessed as surviving fraction at 0.3 uM irradiated with 9.15 mW/cm'2 light for 10 mins by MTT assay; assay type: functional
[32] = test system: HaCaT; assay: Phototoxicity against human HaCaT cells assessed as surviving fraction at 0.25 uM irradiated with 9.15 mW/cm'2 light for 10 mins by MTT assay; assay type: functional
[33] = test system: HaCaT; assay: Induction of apoptosis in human HaCaT cells assessed as intracellular localization at 0.25 uM with 9.15 mW/cm'2 light for; assay type: functional, cell-based; conditions: TDE = time-dependent effect
[34] = test system: HeLa; assay: Phototoxicity against human HeLa cells assessed as surviving fraction at 0.25 uM irradiated with 9.15 mW/cm'2 light for 5 mins by MTT assay; assay type: functional
[35] = test system: HeLa; assay: Phototoxicity against human HeLa cells assessed as surviving fraction at 0.25 uM irradiated with 9.15 mW/cm'2 light for 10 mins by MTT assay; assay type: functional
[36] = test system: HaCaT; assay: Phototoxicity against human HaCaT cells assessed as surviving fraction at 0.25 uM irradiated with 9.15 mW/cm'2 light for 5 mins by MTT assay; assay type: functional
[37] = Photostability of the compound irradiated with 9.15 mW/cm'2 white light; assay type: physicochemical
[38] = test system: HeLa; assay: Phototoxicity against human HeLa cells assessed as surviving fraction at 0.25 uM irradiated with 9.15 mW/cm'2 light for 20 mins by MTT assay; assay type: functional
[39] = test system: HeLa; assay: Phototoxicity against human HeLa cells assessed as survival at 0.25 uM irradiated with 9.15 mW/cm'2 light for 10 mins by MTT assay
[40] = test system: HaCaT; assay: Phototoxicity against human HaCaT cells assessed as surviving fraction at 0.25 uM irradiated with 9.15 mW/cm'2 light for 20 mins by MTT assay; assay type: functional

Structure (SMILES)	Activity [3] [%]	Activity [5] [%]	Activity [6] [%]	Activity [7] [%]	Activity [8] [%]	Activity [10] [%]	Activity [12] [%]	Activity [13] [%]	Activity [15]	Activity [16]	Activity [17] [%]	Activity [19] [%]	also measured
COC(=O)C(CO)NC(=O)c1ccc(-c2c3nc(c(-c4cccc(OC)c4)c4ccc([nH]4)c(-c4cccc(OC)c4)c4nc(c(-c5cccc(OC)c5)c5ccc2[nH]5)C=C4)C=C3)cc1 (configuration not stated)	101.49	91.48	104.72	97.54	102.58	67.33	100.28	102.65	tde	Active	102.78	96.98	Activity [1]: 8%; Activity [2]: 0%; Activity [4]: 0%; Activity [9]: tde; Activity [11]: 22.54%; Activity [14]: Active; Activity [18]: 42.75%; Survival [20]: 42.75%
COC(=O)C(CC[S+](C)[O-])NC(=O)c1ccc(-c2c3nc(c(-c4cccc(OC)c4)c4ccc([nH]4)c(-c4cccc(OC)c4)c4nc(c(-c5cccc(OC)c5)c5ccc2[nH]5)C=C4)C=C3)cc1 (configuration not stated)	99.2	93.5	101.5	101.3	93.26	16.93	92.61	103.4	tde	–	95.69	16.9	Activity [21]: 76.87%; Activity [22]: 28.2%; Survival [23]: 53.02%; Activity [24]: 53.02%; Activity [25]: Active; Activity [26]: 10.93%; Activity [27]: 56.87%; Activity [28]: Active; Activity [29]: tde; Activity [30]: Active; Activity [31]: 14.23%
COC(=O)CNC(=O)c1ccc(-c2c3nc(c(-c4cccc(OC)c4)c4ccc([nH]4)c(-c4cccc(OC)c4)c4nc(c(-c5cccc(OC)c5)c5ccc2[nH]5)C=C4)C=C3)cc1	94.98	104.89	97.96	109.91	107.31	60.42	110.38	102.19	–	Active	106.97	24.3	Activity [32]: 50.96%; Activity [33]: tde; Activity [34]: 3.74%; Activity [35]: 1.13%; Activity [36]: 82.69%; Stability [37]: Stable; Activity [38]: 1.32%; Survival [39]: 50.96%; Activity [40]: 22.11%

Reference: ChEMBL document CHEMBL1212865, “New porphyrin amino acid conjugates: synthesis and photodynamic effect in human epithelial cells” (Bioorg Med Chem, 2010)
